{
  "source": "patent US20080268535A1",
  "about": "“Method for Inducing the Differentiation of Human Myelogenous Leukemia Cells Into Megakarocytes or Thrombocytes” (EWHA University - Industry Collaboration Foundation, priority 2005, published 2008)",
  "assay_type_in_all_cases": "cell-based, human",
  "key": {"K562 cells [1]": {"tested_on": "K562 cells", "experiment": "Differentiation inductivity, lineage receptor expression by FACS, K562 cells", "method": "K562 cells were aliquoted at a density of 2×10^5 per well in 6-well plates and treated with 40 μg/ml of (R)-NALPCE or 30 nM of PMA (12-phorbol myristate-13-acetate, Calbiochem.), followed by incubation for 4 days. After centrifugation (1,000 rpm, 10 min), the cell pellets thus obtained were washed three times with 0.01% bovine serum albumin (BSA) in PBS. The cells were incubated with 10 μl of anti-CD41-fluorescein-5-isothiocyanate (FITC) (Dako Chemicals, Carpenteria, Calif.), 20 μl of anti-CD16-Cy-Chrome (Cy) (BD Pharmingen), 10 μl of anti-glycophorin ACD235a-phycoerythrin (PE) (Dako Chemicals, Carpenteria, Calif.), and 20 μl of anti-CD14-allophycocyanin (APC) (BD Pharmingen) in 200 μl of 0.01% bovine serum albumin (BSA)-PBS at 4° C. for 50 min while spinning to realize homogeneous fluorescent staining. After centrifugation (1,000 rpm, 10 min), the cell pellets thus obtained were washed three times with 0.01% bovine serum albumin (BSA) in PBS. Fluorescence was analyzed on a fluorescence-activated cell sorter (FACS) (Aria) using a Cellquest program."}, "HEL cells [2]": {"tested_on": "HEL cells", "experiment": "Differentiation inductivity, lineage receptor expression by FACS, HEL cells", "conditions": "5 μg/ml (R)-NALPCE 5 days or 10 nM PMA 3 days", "method": "HEL cells were aliquoted at a density of 3×10^5 cells per well in 6-well plates and treated separately with 5 μg/ml of (R)-NALPCE and 10 nM of 12-phorbol myristate-13-acetate (PMA) (Calbiochem.), followed by incubation for 5 and 3 days, respectively. After centrifugation (1,000 rpm, 10 min), cell pellets thus obtained were washed three times with 0.01% bovine serum albumin (BSA) in PBS and incubated with 10 μl of anti-CD61-fluorescein-5-isothiocyanate (FITC) (Dako Chemicals, Carpenteria, Calif.), 20 μl of anti-CD16-Cy-Chrome (Cy) (BD Pharmingen), 10 μl of anti-glycophorin ACD235a-phycoerythrin (PE) (Dako Chemicals, Carpenteria, Calif.), and 20 μl of anti-CD14-allophycocyanin (APC) (BD Pharmingen) in 200 μl of 0.01% bovine serum albumin (BSA)-PBS at 4° C. for 50 min with spinning so as to achieve homogenous fluorescent staining over the cells. After centrifugation (1,000 rpm, 10 min), the cell pellets thus obtained were washed three times with 0.01% bovine serum albumin (BSA) in PBS. Fluorescence was analyzed on a fluorescence-activated cell sorter (FACS) (Aria) using a Cellquest program."}, "K562 cells [3]": {"tested_on": "K562 cells", "experiment": "Cell differentiation of K562 cells on OP9 cells, optical microscopy", "conditions": "for cell morphology (optical microscope): 5 days", "method": "A stromal line of OP9 cells derived from […] was aliquoted at a density of 1×10^5 cells in 6-well plates and incubated for 24 hrs. After the OP9 cells were uniformly attached onto the bottom of the plates, K562 cells were layered at a density of 1×10^5 cells on the OP9 cells in 6-well plates. The cells were treated with 40 μg/ml of (R)-NALPCE, or 500 pmole, 10 nmole or 50 nmole of PMA before incubation for 5 days. They were observed under an optical microscope with 200× magnification."}, "HEL cells [4]": {"tested_on": "HEL cells", "experiment": "Cell differentiation of HEL cells, optical microscopy", "conditions": "5 μg/ml (R)-NALPCE, 10 nmole PMA or 50 ng/ml TPO, 5 days", "method": "HEL cells were aliquoted at a density of 3×10^5 cells per well in 6-well plates and treated with 5 μg/ml of (R)-NALPCE, 10 nmole of PMA, or 50 ng/ml of TPO, followed by incubation in a day-dependent manner for 5 days. They were observed under an optical microscope with 200× magnification."}},
  "note": "“Also recorded” adds a separate entry of the source.",
  "data": [
    {"molecule": "CCCCCCCCCCCCCC(=O)O[C@@H]1[C@@H](C)[C@@]2(O)[C@@H](C=C(CO)C[C@]3(O)C(=O)C(C)=C[C@@H]23)[C@@H]2C(C)(C)[C@]12OC(C)=O", "note": "[PMA, phorbol 12-myristate 13-acetate]", "values": [
      {"measurement": "expression of CD41, CD16, glycophorin A and CD14 receptors", "setting": "K562 cells [1]; K562 cells, 40 μg/ml (R)-NALPCE or 30 nM PMA, 4 days", "value": "CD41 (megakaryocyte-specific receptor), CD16 (neutrophil-specific receptor), CD14 (monocyte-specific receptor) were expressed, particularly with a great increase of CD41"},
      {"measurement": "number of cells expressing CD41, PMA versus (R)-NALPCE", "setting": "K562 cells [1]; leukemia cells derived from human bone marrow, without OP9 cells", "value": "increased in number more in a medium containing PMA than in a medium containing (R)-NALPCE"},
      {"measurement": "expression of CD61, CD235a, CD16 and CD14 receptors", "setting": "HEL cells [2]", "value": "CD61 (megakaryocyte-specific receptor), CD16 (neutrophil-specific receptor), and CD14 (monocyte-specific receptor) were expressed, particularly with a great increase of CD61"},
      {"measurement": "production or secretion of thrombocytes by differentiated megakaryocytes", "setting": "K562 cells [3]; (R)-NALPCE with OP9 cells, PMA treatment", "value": "could not secrete thrombocytes; also recorded: could not produce thrombocyte-like cells"},
      {"measurement": "cell morphology (optical microscope)", "setting": "K562 cells [3]; K562 cells on OP9 cells, 500 pmole of PMA", "value": "did not differentiate, but proliferated, like a control"},
      {"measurement": "cell morphology (optical microscope)", "setting": "K562 cells [3]; K562 cells on OP9 cells, 10 nmole of PMA", "value": "increase in size, but with morphology different from that of those treated with (R)-NALPCE"},
      {"measurement": "thrombocyte-like morphology", "setting": "K562 cells [3]; K562 cells on OP9 cells, 10 nmole of PMA, 5 days or more after treatment", "value": "no morphology similar to thrombocytes was observed"},
      {"measurement": "cell morphology (optical microscope)", "setting": "K562 cells [3]; K562 cells on OP9 cells, 50 nmole of PMA", "value": "differentiate into macrophages"},
      {"measurement": "cell morphology (optical microscope)", "setting": "HEL cells [4]", "value": "increased in size, but with morphology different from that upon treatment with (R)-NALPCE, and differentiated into macrophages"}
    ]},
    {"molecule": "TPO: TPO, comparison agent applied at 50 ng/ml to HEL cells; abbreviation not expanded in the text", "values": [
      {"measurement": "cell morphology (optical microscope)", "setting": "HEL cells [4]", "value": "did not undergo significant change"}
    ]}
  ]
}
